Measured values: patent publication US20250214942A1, “INHIBITORS OF RECEPTOR INTERACTING PROTEIN KINASE I FOR THE TREATMENT OF DISEASE” (Board of Regents, The University of Texas System, priority 2019, published 2025)
Like-named read-outs stand apart in the source and are kept apart here.

Assays:
RIPK1 = RIPK1 (Homo sapiens (Human), UniProt Q13546); assay: ADP-Glo kinase assay (RIPK1 activity, conversion of ATP to ADP); type: biochemical; settings: 5 nM RIPK1, 50 μM ATP, 6 h reaction; read-out: RIPK1 Enzyme Avg IC50
Outline: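 ADP-Glo luminescence of ATP-to-ADP conversion by 5 nM RIPK1 with 50 μM ATP (final), 6 h reaction after 10 min compound preincubation at rt. Buffer was 50 mM HEPES pH 7.5, 30 mM MgCl2, 0.05% BSA, 0.02% CHAPS. IC50 from four-parameter logistic fit.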

[1] = tested on: human monocytic cell line U937; assay: Human U937 cellular necroptosis assay (TNFalpha + z-VAD-FMK, Cell Titer-Glo viability); type: cell-based; settings: U937 cells, 25 ng/mL human TNFalpha + 25 μM z-VAD-FMK, read-out: hU937 Avg IC50
Outline: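 Cells resuspended in phenol red-free RPMI with 10% FBS, stimulated with 25 ng/mL human TNFalpha plus 25 μM z-VAD-FMK, then given serially diluted compound for 22 h at 37° C, 5% CO2. Viability by Cell Titer-Glo 2.0 luminescence; IC50 from four-parameter logistic fit, averaged across runs.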

RIPK1, sequence (Q13546 1-327): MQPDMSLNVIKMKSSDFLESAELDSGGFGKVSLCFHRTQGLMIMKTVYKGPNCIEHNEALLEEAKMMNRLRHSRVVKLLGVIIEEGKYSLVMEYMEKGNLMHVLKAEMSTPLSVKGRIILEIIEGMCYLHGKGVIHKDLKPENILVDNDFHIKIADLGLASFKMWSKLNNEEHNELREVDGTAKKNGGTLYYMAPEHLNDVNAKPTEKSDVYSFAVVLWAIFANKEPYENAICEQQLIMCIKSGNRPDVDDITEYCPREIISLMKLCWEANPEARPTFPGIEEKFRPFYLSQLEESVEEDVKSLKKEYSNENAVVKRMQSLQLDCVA

IC50 (RIPK1) [nM] | SMILES | IC50 ([1]; Homo sapiens, U-937, 22 h) [nM] | IC50 ([1]; 22 h) [nM]
11 | O=C(N1N=CCC1c1cc(F)cc(F)c1)C12CC(Cn3ncc4c(F)cccc43)(C1)C2 (stereo not drawn) [Example 22, (5-(3,5-Difluorophenyl)-4,5-dihydro-1H-pyrazol-1-yl)(3-((4-fluoro-1H-indazol-1-yl)methyl)bicyclo[1.1.1]pentan-1-yl)methanone] | 5 | –
30 | O=C(N1N=CCC1c1cc(F)cc(F)c1)C12CC(Cn3cnc4ccccc43)(C1)C2 (stereo not drawn) [Example 23, (3-((1H-Benzo[d]imidazol-1-yl)methyl)bicyclo[1.1.1]pentan-1-yl)(5-(3,5-difluorophenyl)-4,5-dihydro-1H-pyrazol-1-yl)methanone] | 158 | –
59 | N#Cc1ccnc(OCC23CC(C(=O)N4CC(F)CC4c4cccc(F)c4)(C2)C3)c1 (stereo not drawn) [Example 26, 2-((3-(4-Fluoro-2-(3-fluorophenyl)pyrrolidine-1-carbonyl)-bicyclo[1.1.1]pentan-1-yl)methoxy)isonicotinonitrile] | 472 | –
14 | O=C(N1CC(F)CC1c1cccc(F)c1)C12CC(Cn3ncc4cc(F)ccc43)(C1)C2 (stereo not drawn) [Example 27, (3-((5-Fluoro-1H-indazol-1-yl)methyl)bicyclo[1.1.1]pentan-1-yl)(4-fluoro-2-(3-fluorophenyl)pyrrolidin-1-yl)methanone] | 167 | –
32 | O=C(N1CC(F)CC1c1cccc(F)c1)C12CC(COc3cc(Br)ncn3)(C1)C2 (stereo not drawn) [Example 28, (3-(((6-Bromopyrimidin-4-yl)oxy)methyl)bicyclo[1.1.1]pentan-1-yl)(4-fluoro-2-(3-fluorophenyl)pyrrolidin-1-yl)methanone] | 193 | –
55 | O=C(N1CC(F)CC1c1cccc(F)c1)C12CC(COc3ccccc3)(C1)C2 (stereo not drawn) [Example 31, (4-Fluoro-2-(3-fluorophenyl)pyrrolidin-1-yl)(3-(phenoxymethyl)-bicyclo[1.1.1]pentan-1-yl)methanone] | 462 | –
31 | O=C(N1CC(F)CC1c1cccc(F)c1)C12CC(C(F)c3ccccc3)(C1)C2 (stereo not drawn) [Example 41, (3-(Fluoro(phenyl)methyl)bicyclo[1.1.1]pentan-1-yl)-(4-fluoro-2-(3-fluorophenyl)pyrrolidin-1-yl)methanone] | 272 | –
31 | O=C(N1N=CCC1c1cc(F)cc(F)c1)C12CC(C(F)c3cccc(Cl)c3)(C1)C2 (stereo not drawn) [Example 42, (3-((3-chlorophenyl)fluoromethyl)bicyclo[1.1.1]pentan-1-yl)(5-(3,5-difluorophenyl)-4,5-dihydro-1H-pyrazol-1-yl)methanone] | 51 | –
1700 | CC(Oc1cc(Cl)ncn1)C12CC(C(=O)N3CC(F)CC3c3cccc(F)c3)(C1)C2 (stereo not drawn) [Example 43, (3-(1-((6-Chloropyrimidin-4-yl)oxy)ethyl)bicyclo[1.1.1]pentan-1-yl)(4-fluoro-2-(3-fluorophenyl)pyrrolidin-1-yl)methanone] | 4210 | –
93 | CC1=NN(C(=O)C23CC(Cn4cc(C#N)cn4)(C2)C3)C(c2cc(F)cc(F)c2)C1 (stereo not drawn) [Example 47, 1-((3-(5-(3,5-difluorophenyl)-3-methyl-4,5-dihydro-1H-pyrazole-1-carbonyl)-bicyclo[1.1.1]pentan-1-yl)methyl)-1H-pyrazole-4-carbonitrile] | 1110 | –
186 | O=C(N1CC(F)CC1c1cccc(F)c1)C12CC(Cn3ncc4ncccc43)(C1)C2 (stereo not drawn) [Example 48, (3-((1H-pyrazolo[4,3-b]pyridin-1-yl)methyl)bicyclo[1.1.1]pentan-1-yl)-(4-fluoro-2-(3-fluorophenyl)pyrrolidin-1-yl)methanone] | 1300 | –
22 | Cc1cnc(C2CC=NN2C(=O)C23CC(Cn4ncc5cc(C#N)ccc54)(C2)C3)cn1 (stereo not drawn) [Example 49, 1-((3-(5-(5-Methylpyrazin-2-yl)-4,5-dihydro-1H-pyrazole-1-carbonyl)-bicyclo[1.1.1]pentan-1-yl)methyl)-1H-indazole-5-carbonitrile] | 67 | –
16 | Cc1cncc(C2CC=NN2C(=O)C23CC(Cn4ncc5cc(C#N)ccc54)(C2)C3)n1 (stereo not drawn) [Example 50, 1-((3-(5-(6-methylpyrazin-2-yl)-4,5-dihydro-1H-pyrazole-1-carbonyl)bicyclo[1.1.1]pentan-1-yl)methyl)-1H-indazole-5-carbonitrile] | 36 | –
22 | N#Cc1ccc2c(cnn2CC23CC(C(=O)N4N=CCC4c4cnccn4)(C2)C3)c1 (stereo not drawn) [Example 51, 1-((3-(5-(pyrazin-2-yl)-4,5-dihydro-1H-pyrazole-1-carbonyl)bicyclo[1.1.1]pentan-1-yl)methyl)-1H-indazole-5-carbonitrile] | 40 | –
24 | N#Cc1ccc2c(cnn2CC23CC(C(=O)N4N=CCC4c4ccccc4)(C2)C3)c1 (stereo not drawn) [Example 52, 1-((3-(5-phenyl-4,5-dihydro-1H-pyrazole-1-carbonyl)-bicyclo[1.1.1]pentan-1-yl)methyl)-1H-indazole-5-carbonitrile] | 16 | –
409 | NC(=O)c1cn(CC23CC(C(=O)N4N=CCC4c4cc(F)cc(F)c4)(C2)C3)nn1 (stereo not drawn) [Example 54, 1-((3-(5-(3,5-difluorophenyl)-4,5-dihydro-1H-pyrazole-1-carbonyl)-bicyclo[1.1.1]pentan-1-yl)methyl)-1H-1,2,3-triazole-4-carboxamide] | 2640 | –
896 | NC(=O)c1cnnn1CC12CC(C(=O)N3N=CCC3c3cc(F)cc(F)c3)(C1)C2 (stereo not drawn) [Example 55, 1-((3-(5-(3,5-difluorophenyl)-4,5-dihydro-1H-pyrazole-1-carbonyl)-bicyclo[1.1.1]pentan-1-yl)methyl)-1H-1,2,3-triazole-5-carboxamide] | 8930 | –
19 | N#Cc1ccc2cn(CC34CC(C(=O)N5N=CCC5c5cc(F)cc(F)c5)(C3)C4)nc2c1 (stereo not drawn) [Example 56, 2-((3-(5-(3,5-difluorophenyl)-4,5-dihydro-1H-pyrazole-1-carbonyl)bicyclo[1.1.1]-pentan-1-yl)methyl)-2H-indazole-6-carbonitrile] | 63 | –
32 | COc1ccc2cn(CC34CC(C(=O)N5N=CCC5c5cc(F)cc(F)c5)(C3)C4)nc2c1 (stereo not drawn) [Example 57, (5-(3,5-difluorophenyl)-4,5-dihydro-1H-pyrazol-1-yl)(3-((6-methoxy-2H-indazol-2-yl)methyl)bicyclo[1.1.1]-pentan-1-yl)methanone] | 110 | –
34 | O=C(N1N=CCC1c1cc(F)cc(F)c1)C12CC(Cn3cc4cccc(Cl)c4n3)(C1)C2 (stereo not drawn) [Example 58, (3-((7-chloro-2H-indazol-2-yl)methyl)bicyclo[1.1.1]-pentan-1-yl)(5-(3,5-difluoro-phenyl)-4,5-dihydro-1H-pyrazol-1-yl)methanone] | 160 | –
43 | O=C(N1N=CCC1c1cc(F)cc(F)c1)C12CC(Cn3cc4ncccc4n3)(C1)C2 (stereo not drawn) [Example 59, (3-((2H-pyrazolo[4,3-b]-pyridin-2-yl)methyl)bicyclo-[1.1.1]pentan-1-yl)(5-(3,5-difluorophenyl)-4,5-dihydro-1H-pyrazol-1-yl)methanone] | 226 | –
44 | N#Cc1cccc2nn(CC34CC(C(=O)N5N=CCC5c5cc(F)cc(F)c5)(C3)C4)cc12 (stereo not drawn) [Example 60, 2-((3-(5-(3,5-difluorophenyl)-4,5-dihydro-1H-pyrazole-1-carbonyl)bicyclo[1.1.1]-pentan-1-yl)methyl)-2H-indazole-4-carbonitrile] | 178 | –
45 | N#Cc1ccc2nn(CC34CC(C(=O)N5N=CCC5c5cc(F)cc(F)c5)(C3)C4)cc2c1 (stereo not drawn) [Example 61, 2-((3-(5-(3,5-difluorophenyl)-4,5-dihydro-1H-pyrazole-1-carbonyl)bicyclo[1.1.1]-pentan-1-yl)methyl)-2H-indazole-5-carbonitrile] | 211 | –
46 | O=C(N1N=CCC1c1cc(F)cc(F)c1)C12CC(Cn3cc4ccc(F)cc4n3)(C1)C2 (stereo not drawn) [Example 62, (5-(3,5-difluorophenyl)-4,5-dihydro-1H-pyrazol-1-yl)(3-((6-fluoro-2H-indazol-2-yl)methyl)bicyclo[1.1.1]-pentan-1-yl)methanone] | 133 | –
10 | N#Cc1ccc2c(cnn2CC23CC(C(=O)N4N=CCC4c4cc(F)cc(F)c4)(C2)C3)c1 (stereo not drawn) [Example 64, 1-((3-(5-(3,5-difluorophenyl)-4,5-dihydro-1H-pyrazole-1-carbonyl)bicyclo[1.1.1]-pentan-1-yl)methyl)-1H-indazole-5-carbonitrile] | 7 | –
11 | O=C(N1N=CCC1c1cc(F)cc(F)c1)C12CC(Cn3ncc4ncccc43)(C1)C2 (stereo not drawn) [Example 65, (3-((1H-pyrazolo[4,3-b]-pyridin-1-yl)methyl)bicyclo-[1.1.1]pentan-1-yl)(5-(3,5-difluorophenyl)-4,5-dihydro-1H-pyrazol-1-yl)methanone] | – | 44
19 | N#Cc1cccc2c1cnn2CC12CC(C(=O)N3N=CCC3c3cc(F)cc(F)c3)(C1)C2 (stereo not drawn) [Example 67, 1-((3-(5-(3,5-difluorophenyl)-4,5-dihydro-1H-pyrazole-1-carbonyl)bicyclo[1.1.1]-pentan-1-yl)methyl)-1H-indazole-4-carbonitrile] | 54 | –
